Results on 7 compounds are retold here after US20250115581A1, “SUBSTITUTED PIPERIDINES AS CK1A DEGRADERS” (Monte Rosa Therapeutics, Inc., priority 2022, published 2025).

The target of one experiment is T1, CK1α (Homo sapiens, UniProt P48729+Q96SW2).
T1 construct: HEK293 clonal lines with CRISPR KI HiBiT tag on CSNK1A1; host or cells: HEK293 clonal line, CRISPR knock-in HiBiT at the CSNK1A1 locus, stably expressing LgBiT
Nature of the experiment: CK1α NanoBit Assay (HiBiT-tagged CSNK1A1 in HEK293 cells, luminescence). The experiment is classed as cell-based. The settings on record: 24 h. In a few lines: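 HEK293 with endogenous HiBiT-tagged CSNK1A1 and stable LgBiT, live-cell Endurazine substrate; compound added at 10 or 30 μM final top concentration after 16 h plating, then 24 h at 37 °C. Luminescence normalised to plate controls; DC50 by 3-parameter logistic fit, hill slope 1.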
Background: The HiBiT peptide binds its large partner to form an active luciferase.

For a further experiment, the target named is CRBN/DDB1 (Homo sapiens, UniProt Q96SW2). Nature of the experiment: HTRF binding assay (displacement of Cy5-thalidomide probe from CRBN/DDB1). The settings on record: CRBN/DDB1 2.5 nM, Cy5-Thalidomide 100 nM, 30 min; geometric mean; read-out: HTRF_Thali_Disp_DR_geo_IC50. In a few lines: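 HTRF displacement of Cy5-thalidomide probe (100 nM) from His-tagged CRBN/DDB1 (2.5 nM) with anti-His terbium cryptate, in HEPES/NaCl/TCEP/EDTA/Tween20 buffer; 10-point 1:3 series, 30 min at ambient temperature. 665/620 nm ratio fitted 4-parameter logistic for IC50; Ki via Cheng-Prusoff.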

The subject of the next experiment is SKCO1. Nature of the experiment: Growth inhibition, CyQUANT Direct Cell Proliferation Assay, SKCO1. Format: cell-based. The settings on record: Homo sapiens, SK-CO-1; SKCO1 cells, 120 to 168 hours. The method, then: (§1) SKCO1, LS180, and LS174T cell lines were purchased from ATCC. CW2 cell line was purchased from Riken. GP2D cell line was purchased from Sigma/ECACC. All cell lines were cultured in manufacturer's recommended media at 37° C., 5% CO2. Briefly, cells were suspended in 200 μL of media and seeded at 300 to 1,800 cells per well in tissue culture treated 96-well plates with black walls and clear bottom. Plates were incubated overnight and initial (TO) read was performed the following day using CyQUANT Direct Cell Proliferation Assay Kit (Thermo Fisher Scientific) according to manufacturer's protocol. All compounds were solubilized in DMSO and prepared at 3-fold serial dilution, using 9 points starting at 30 μM as highest concentration, administered to cells and incubated for 120 to 168 hours, at which point CyQUANT assay measurement was performed using Acumen Cellista instrument (Ex/Em 480/520 nm). Media-only wells were used as blank, and 0.3% DMSO was used as DMSO-treated cell control. Growth inhibition (percent response) was calculated using the following formula in Excel: “=if ([Compound treated Day N]>[Untreated Day 0, AVG], ([Compound treated Day N]− [Untreated Day 0, AVG])/([Untreated Day N]−[Untreated Day 0, AVG])*100, ([Compound Treated Day N]−[Untreated Day 0, AVG])/([Untreated Day 0, AVG])*100)”. GI50 is the response corresponding to the 50% of untreated control.
(§2) GI50 data are reported in Tables 4a, 4b, 4c, 4d, and 4e for compounds in Table 1. In Tables 4a, 4b, 4c, 4d, and 4e below, According to the code, A represents a GI50 value of ≤0.1 μM, B represents a GI50 value >0.1 μM and ≤1 μM, C represents an GI50 value >1 μM.

The next experiment has as its system CW2. Nature of the experiment: Growth inhibition, CyQUANT Direct Cell Proliferation Assay, CW2. The note with it: Homo sapiens, CW-2; CW2 cells, 120 to 168 hours. Format: cell-based. The method, then:
as §1, §2

A further experiment deals with GP2D. The experiment in a line: Growth inhibition, CyQUANT Direct Cell Proliferation Assay, GP2D. The settings on record: GP2D cells, 120 to 168 hours. Format: cell-based. On the procedure: as §1, §2
The test system of a further experiment is LS180. The experiment in a line: Growth inhibition, CyQUANT Direct Cell Proliferation Assay, LS180. The experiment is classed as cell-based. The note with it: Homo sapiens; LS180 cells, 120 to 168 hours. On the procedure: as §1, §2
The next experiment deals with LS174T. Nature of the experiment: Growth inhibition, CyQUANT Direct Cell Proliferation Assay, LS174T. The experiment is classed as cell-based. The settings on record: Homo sapiens; LS174T cells, 120 to 168 hours. The method, then:
as §1, §2

The structures appear in SMILES notation. pIC50: −log10 of the molar value.

Sequence of CRBN/DDB1 (Q96SW2 whole entry): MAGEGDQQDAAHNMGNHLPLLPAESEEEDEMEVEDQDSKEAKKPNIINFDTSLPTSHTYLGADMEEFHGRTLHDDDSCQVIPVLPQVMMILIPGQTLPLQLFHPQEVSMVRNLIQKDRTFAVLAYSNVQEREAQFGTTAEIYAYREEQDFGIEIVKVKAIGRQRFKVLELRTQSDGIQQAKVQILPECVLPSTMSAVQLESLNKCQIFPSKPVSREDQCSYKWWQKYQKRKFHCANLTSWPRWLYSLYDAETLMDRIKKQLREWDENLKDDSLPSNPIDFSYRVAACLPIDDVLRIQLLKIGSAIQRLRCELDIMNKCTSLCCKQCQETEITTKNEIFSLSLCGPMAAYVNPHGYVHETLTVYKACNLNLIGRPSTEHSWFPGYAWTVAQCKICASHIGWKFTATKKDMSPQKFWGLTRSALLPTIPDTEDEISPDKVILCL
Sequence of CRBN/DDB1 (Q16531 whole entry partner): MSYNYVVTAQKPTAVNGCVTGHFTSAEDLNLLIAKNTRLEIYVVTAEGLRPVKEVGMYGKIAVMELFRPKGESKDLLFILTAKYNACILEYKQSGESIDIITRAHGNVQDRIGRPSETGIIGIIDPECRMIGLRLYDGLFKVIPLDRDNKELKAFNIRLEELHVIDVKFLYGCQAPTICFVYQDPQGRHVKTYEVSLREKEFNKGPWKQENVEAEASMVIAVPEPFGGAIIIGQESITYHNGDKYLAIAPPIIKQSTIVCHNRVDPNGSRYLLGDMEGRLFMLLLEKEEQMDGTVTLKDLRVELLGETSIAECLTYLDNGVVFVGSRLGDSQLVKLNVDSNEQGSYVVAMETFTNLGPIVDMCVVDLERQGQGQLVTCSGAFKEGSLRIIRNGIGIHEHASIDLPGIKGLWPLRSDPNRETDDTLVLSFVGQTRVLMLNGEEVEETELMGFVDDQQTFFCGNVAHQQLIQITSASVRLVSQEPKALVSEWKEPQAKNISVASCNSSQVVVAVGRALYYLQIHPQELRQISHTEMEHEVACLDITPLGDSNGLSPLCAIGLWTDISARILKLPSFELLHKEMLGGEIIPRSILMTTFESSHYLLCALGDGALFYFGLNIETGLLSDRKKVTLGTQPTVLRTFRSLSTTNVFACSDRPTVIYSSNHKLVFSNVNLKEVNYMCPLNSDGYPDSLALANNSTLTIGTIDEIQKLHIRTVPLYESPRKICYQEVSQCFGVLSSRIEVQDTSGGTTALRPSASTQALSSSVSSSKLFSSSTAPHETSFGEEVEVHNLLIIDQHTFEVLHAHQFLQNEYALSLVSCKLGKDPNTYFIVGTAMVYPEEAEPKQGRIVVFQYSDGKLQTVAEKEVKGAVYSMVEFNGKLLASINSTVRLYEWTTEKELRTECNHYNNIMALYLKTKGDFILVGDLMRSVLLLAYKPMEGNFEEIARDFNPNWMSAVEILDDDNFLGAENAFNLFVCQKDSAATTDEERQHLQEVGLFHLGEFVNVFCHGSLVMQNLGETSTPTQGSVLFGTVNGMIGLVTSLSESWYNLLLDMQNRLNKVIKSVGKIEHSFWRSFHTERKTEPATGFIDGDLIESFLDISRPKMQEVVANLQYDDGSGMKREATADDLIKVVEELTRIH
T1 sequence (P48729 whole entry): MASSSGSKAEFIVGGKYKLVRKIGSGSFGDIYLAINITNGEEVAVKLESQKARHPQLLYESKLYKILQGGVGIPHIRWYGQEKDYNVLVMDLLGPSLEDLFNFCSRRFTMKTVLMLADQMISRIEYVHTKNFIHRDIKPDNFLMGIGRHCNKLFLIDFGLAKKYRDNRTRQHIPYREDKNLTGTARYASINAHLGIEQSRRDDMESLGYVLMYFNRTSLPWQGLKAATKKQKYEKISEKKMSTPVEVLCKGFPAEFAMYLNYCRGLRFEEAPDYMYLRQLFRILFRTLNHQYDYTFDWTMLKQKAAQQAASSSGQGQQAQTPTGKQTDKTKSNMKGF
T1 sequence (Q96SW2 whole entry): as the sequence (Q96SW2 whole entry) above
T1 sequence (Q16531 whole entry partner): as the sequence (Q16531 whole entry partner) above

As a reminder, the GI50 is the concentration at which growth is held to half of that of the control. Lower therefore signals greater sensitivity of the cells. On to `Cc1ccc(N2CCN(c3ccc4c(c3)CN(C3CCC(=O)NC3=O)C4=O)C2=O)cn1` (centres unmarked) [Compound 104, 3-(5-(3-(6-methylpyridin-3-yl)-2-oxoimidazolidin-1-yl)-1-oxoisoindolin-2-yl)piperidine-2,6-dione], for which the DC50 at CK1α is not above 0.1 µM. Also, on CRBN/DDB1, the pIC50 was 6.00 to 7.00. In addition, the GI50 with SKCO1, in the experiment with CW2, in the experiment on GP2D, with LS180 and with LS174T was 100 to 1000 nM in each case.
For `Cc1ccc(N2CCN(c3ccc4c(c3)CN(C3CCC(=O)NC3=O)C4=O)C2=O)cc1` (centres unmarked) [Compound 111, 3-(1-oxo-5-(2-oxo-3-(p-tolyl)imidazolidin-1-yl)isoindolin-2-yl) piperidine-2,6-dione], at CK1α, the DC50 was not above 0.1 µM. The pIC50 on CRBN/DDB1 is 6.00 to 7.00. The GI50 in the experiment with SKCO1 was not above 100 nM; with CW2, not above 100 nM; in the experiment with GP2D, 100 to 1000 nM; in the experiment with LS180, 100 to 1000 nM; with LS174T, 100 to 1000 nM.
In turn, `O=C1CCC(N2Cc3cc(N4CCN(c5ccc(C6CC6)cc5)C4=O)ccc3C2=O)C(=O)N1` (centres unmarked) [Compound 123, 3-(5-(3-(4-cyclopropylphenyl)-2-oxoimidazolidin-1-yl)-1-oxoisoindolin-2-yl)piperidine-2,6-dione] had a DC50 on CK1α not above 0.1 µM. In addition, the pIC50 on CRBN/DDB1 is less than 6.00. Further, the GI50 in the experiment with SKCO1 is not above 100 nM; in the experiment with CW2, not above 100 nM; with GP2D it was 100 to 1000 nM; in the experiment with LS180, 100 to 1000 nM; in the experiment with LS174T, not above 100 nM.
Compound `O=C1CCC(N2Cc3cc(N4CCN(c5ccc(C(F)F)nc5)C4=O)ccc3C2=O)C(=O)N1` (centres unmarked) [Compound 124, 3-(5-(3-(6-(difluoromethyl)pyridin-3-yl)-2-oxoimidazolidin-1-yl)-1-oxoisoindolin-2-yl)piperidine-2,6-dione] came in with a DC50 at CK1α not above 0.1 µM. Also, the pIC50 on CRBN/DDB1 was 6.00 to 7.00. The GI50 is 100 to 1000 nM with SKCO1; not above 100 nM in the experiment on CW2; 100 to 1000 nM with GP2D; 100 to 1000 nM in the experiment on LS180; not above 100 nM in the experiment with LS174T.
At CK1α, `O=C1CCC(N2Cc3cc(N4CCN(c5ccc(C(F)(F)F)nc5)C4=O)ccc3C2=O)C(=O)N1` (centres unmarked) [Compound 126, 3-(1-oxo-5-(2-oxo-3-(6-(trifluoromethyl)pyridin-3-yl)imidazolidin-1-yl)isoindolin-2-yl)piperidine-2,6-dione] came in with a DC50 not above 0.1 µM. In addition, on CRBN/DDB1, the pIC50 was 6.00 to 7.00. Also, the GI50 with SKCO1 was 100 to 1000 nM; in the experiment with CW2, not above 100 nM; in the experiment on GP2D it was 100 to 1000 nM; with LS180, 100 to 1000 nM; in the experiment on LS174T, 100 to 1000 nM.
For the compound `C[C@@H]1CN(c2ccc3c(c2)CN(C2CCC(=O)NC2=O)C3=O)C(=O)N1c1ccc(C2CC2)nc1` (stereo partly drawn) [Compound 137, 3-(5-((R)-3-(6-cyclopropylpyridin-3-yl)-4-methyl-2-oxoimidazolidin-1-yl)-1-oxoisoindolin-2-yl)piperidine-2,6-dione], the DC50 at CK1α was not above 0.1 µM. Also, the pIC50 at CRBN/DDB1 was 6.00 to 7.00. Besides, the GI50 in the experiment with SKCO1 is 100 to 1000 nM; in the experiment with CW2, 100 to 1000 nM; with GP2D it was more than 1000 nM; with LS180 it was more than 1000 nM; in the experiment with LS174T it was 100 to 1000 nM.
On CK1α, `O=C1CCC(N2Cc3cc(N4CCN(C5CN(c6ccccn6)C5)C4=O)ccc3C2=O)C(=O)N1` (centres unmarked) [Compound 184, 3-(1-oxo-5-(2-oxo-3-(1-(pyridin-2-yl)azetidin-3-yl)imidazolidin-1-yl)isoindolin-2-yl)piperidine-2,6-dione] showed a DC50 of more than 1 µM. For the same compound, on CRBN/DDB1, the pIC50 was 6.00 to 7.00.
